Data from patent US7816522B2, “Triazolone derivatives” (Eisai Co., Ltd., priority 2006, dated 2010).

Target: T1, human clotting factor VIIa (Homo sapiens, UniProt P08709)
T1 construct: a human clotting factor VIIa (hereinafter, “Factor VIIa”) purified sample; purchased Enzyme Research Laboratories HFVIIa
Assay: Inhibitory activity against clotting factor VIIa (chromogenic substrate Spectrozyme FVIIa, TF/Factor VIIa enzyme solution)
Type: biochemical
Settings: human Factor VIIa 5 nmol/L with human TF 10 nmol/L, room temperature 40 minutes, 405 nm
Summary of the method: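 Human Factor VIIa (5 nmol/L) with human TF (10 nmol/L) in Tris-BSA buffer pH 7.4 containing 15 mmol/L CaCl2 and cephalin, with Spectrozyme FVIIa substrate. Reaction 40 min at room temperature; 4-nitroanilide read at 405 nm. IC50 by non-linear regression over 100 μmol/L–0.1 nmol/L.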

T1 sequence (P08709 213-466 limits assumed): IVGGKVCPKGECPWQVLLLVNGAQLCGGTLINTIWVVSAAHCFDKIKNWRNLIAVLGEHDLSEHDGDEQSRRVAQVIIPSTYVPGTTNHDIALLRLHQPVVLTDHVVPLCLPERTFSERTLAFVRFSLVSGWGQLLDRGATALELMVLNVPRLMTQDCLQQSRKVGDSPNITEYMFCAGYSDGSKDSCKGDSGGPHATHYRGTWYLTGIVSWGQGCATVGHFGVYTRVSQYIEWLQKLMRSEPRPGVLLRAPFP
T1 sequence (P08709 61-212 limits assumed): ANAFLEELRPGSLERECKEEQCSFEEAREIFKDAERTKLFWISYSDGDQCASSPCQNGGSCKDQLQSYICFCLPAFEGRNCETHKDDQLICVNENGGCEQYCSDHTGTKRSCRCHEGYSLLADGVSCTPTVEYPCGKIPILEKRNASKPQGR
T1 sequence (P13726 33-295 partner): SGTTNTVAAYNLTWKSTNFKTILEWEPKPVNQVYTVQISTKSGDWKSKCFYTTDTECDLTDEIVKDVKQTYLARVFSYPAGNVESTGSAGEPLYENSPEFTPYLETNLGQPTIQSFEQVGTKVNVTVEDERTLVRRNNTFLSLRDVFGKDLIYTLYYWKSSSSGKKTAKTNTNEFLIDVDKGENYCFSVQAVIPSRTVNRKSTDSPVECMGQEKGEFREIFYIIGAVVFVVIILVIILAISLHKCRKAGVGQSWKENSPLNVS

IC50 | Compound
9 nM | COc1cc(C(Nc2ccc(C(=N)N)cc2)c2nn(-c3ncccn3)c(=O)[nH]2)c(F)c2c1OCC2 (racemic) [Example 161, (R) and (S)-4-{[(4-fluoro-7-methoxy-2,3-dihydrobenzofuran-5-yl)-(5-oxo-1-pyrimidin-2-yl-4,5-dihydro-1H-[1,2,4]triazol-3-yl)methyl]-amino}benzamidine acetate]
16.5 nM | COc1cc(F)c(C(Nc2ccc(C(=N)N)cc2)c2nn(-c3ncsc3C(=O)O)c(=O)[nH]2)cc1OC (racemic) [Example 162, (R) and (S)-4-{3-[(4-carbamimidoylphenylamino)-(2-fluoro-4,5-dimethoxyphenyl)methyl]-5-oxo-4,5-dihydro[1,2,4]triazol-1-yl}thiazole-5-carboxylic acid]
10.5 nM | COc1cc(OCCCO)c(F)c(C(Nc2ccc(C(=N)N)cc2)c2nn(-c3ncsc3C(=O)O)c(=O)[nH]2)c1 (racemic) [Example 163, (R) and (S)-4-(3-{(4-carbamimidoylphenylamino)-[2-fluoro-3-(3-hydroxypropoxy)-5-methoxyphenyl]methyl}-5-oxo-4,5-dihydro-[1,2,4]triazol-1-yl)thiazole-5-carboxylic acid]
24.5 nM | COc1cc(C(Nc2ccc(C(=N)N)cc2)c2nn(-c3ncsc3C(N)=O)c(=O)[nH]2)c(F)c2c1OCOC2 (racemic) [Example 164, (R) and (S)-4-{3-[(4-carbamimidoylphenylamino)-(5-fluoro-8-methoxy-4H-benzo[1,3]dioxin-6-yl)methyl]-5-oxo-4,5-dihydro-[1,2,4]triazol-1-yl}thiazole-5-carboxylic acid amide]
25.8 nM | COc1cc(C(Nc2ccc(C(=N)N)cc2)c2nn(-c3ncsc3C(=O)O)c(=O)[nH]2)c(F)c2c1OCOC2 (racemic) [Example 165, (R) and (S)-4-{3-[(4-carbamimidoylphenylamino)-(5-fluoro-8-methoxy-4H-benzo[1,3]dioxin-6-yl)methyl]-5-oxo-4,5-dihydro-[1,2,4]triazol-1-yl}thiazole-5-carboxylic acid]
18.7 nM | COc1cc(C(Nc2ccc(C(=N)N)cc2)c2nn(-c3ncsc3C(=O)O)c(=O)[nH]2)cc2c1OCOC2 (racemic) [Example 166, (R) and (S)-4-{3-[(4-carbamimidoylphenylamino)-(8-methoxy-4H-benzo[1,3]dioxin-6-yl)methyl]-5-oxo-4,5-dihydro-[1,2,4]triazol-1-yl}thiazole-5-carboxylic acid]
11.1 nM | COc1cc(OCCO)c(F)c(C(Nc2ccc(C(=N)N)cc2)c2nn(-c3ncsc3C(=O)O)c(=O)[nH]2)c1 (racemic) [Example 167, (R) and (S)-4-(3-{(4-carbamimidoylphenylamino)-[2-fluoro-3-(2-hydroxyethoxy)-5-methoxyphenyl]methyl}-5-oxo-4,5-dihydro[1,2,4]triazol-1-yl)thiazole-5-carboxylic acid]
2.8 nM | COc1cc(C(Nc2ccc(C(=N)N)cc2)c2nn(-c3ccsc3C(=O)O)c(=O)[nH]2)c(F)c2c1OCCO2 (racemic) [Example 168, (R) and (S)-3-{3-[(4-carbamimidoylphenylamino)-(5-fluoro-8-methoxy-2,3-dihydrobenzo[1,4]dioxin-6-yl)methyl]-5-oxo-4,5-dihydro-[1,2,4]triazol-1-yl}thiophene-2-carboxylic acid]
2.8 nM | COc1cc(C(Nc2ccc(C(=N)N)cc2)c2nn(-c3ccsc3C(=O)O)c(=O)[nH]2)cnc1OC (racemic) [Example 169, 3-{3-[(R) and (S)-(4-carbamimidoylphenylamino)-(5,6-dimethoxypyridin-3-yl)methyl]-5-oxo-4,5-dihydro-[1,2,4]triazol-1-yl}thiophene-2-carboxylic acid acetate]
8 nM | COc1cnc(C(Nc2ccc(C(=N)N)cc2)c2nn(-c3ccsc3C(=O)O)c(=O)[nH]2)cc1OC (racemic) [Example 170, 3-{3-[(R) and (S)-(4-carbamimidoylphenylamino)-(4,5-dimethoxypyridin-2-yl)methyl]-5-oxo-4,5-dihydro-[1,2,4]triazol-1-yl}thiophene-2-carboxylic acid]
3.3 nM | COc1cc(F)c(C(Nc2ccc(C(=N)N)cc2)c2nn(-c3ccsc3C(=O)O)c(=O)[nH]2)cc1OC (racemic) [Example 171, (R) and (S)-3-{3-[(4-carbamimidoylphenylamino)-(2-fluoro-4,5-dimethoxyphenyl)methyl]-5-oxo-4,5-dihydro[1,2,4]triazol-1-yl}thiophene-2-carboxylic acid]
14.1 nM | COc1cc(C(Nc2ccc(C(=N)N)c(F)c2)c2nn(-c3ccccc3C(=O)O)c(=O)[nH]2)cc(C)n1 (racemic) [Example 173, 2-{3-[(R) and (S)-(4-carbamimidoyl-3-fluorophenylamino)-(2-methoxy-6-methylpyridin-4-yl)methyl]-5-oxo-4,5-dihydro-[1,2,4]triazol-1-yl}benzoic acid]
1.8 nM | COc1cc(OCCF)c(F)c(C(Nc2ccc(C(=N)N)cc2)c2nn(-c3cccc(N)n3)c(=O)[nH]2)c1 (racemic) [Example 174, (R) and (S)-4-({[1-(6-aminopyridin-2-yl)-5-oxo-4,5-dihydro-1H-[1,2,4]triazol-3-yl]-[2-fluoro-3-(2-fluoroethoxy)-5-methoxyphenyl]methyl}amino)benzamidine acetate]
6.1 nM | COc1cc(C(Nc2ccc(C(=N)N)cc2)c2nn(-c3ncccc3C(=O)O)c(=O)[nH]2)c(F)c2c1OCCCO2 (racemic) [Example 176, (R) and (S)-2-{3-[(4-carbamimidoylphenylamino)-(6-fluoro-9-methoxy-3,4-dihydro-2H-benzo[b][1,4]dioxepin-7-yl)methyl]-5-oxo-4,5-dihydro-[1,2,4]triazol-1-yl}nicotinic acid]
14.3 nM | COc1cc(C(Nc2ccc(C(=N)N)cc2)c2nn(-c3ccccc3C(=O)O)c(=O)[nH]2)c(F)cc1OCCO (racemic) [Example 178, (R) and (S)-2-(3-{(4-carbamimidoylphenylamino)-[2-fluoro-4-(2-hydroxyethoxy)-5-methoxyphenyl]methyl}-5-oxo-4,5-dihydro-[1,2,4]triazol-1-yl)benzoic acid]
9.9 nM | CCc1cc(C(Nc2ccc(C(=N)N)cc2)c2nn(-c3ncsc3C(=O)O)c(=O)[nH]2)cc2c1OCOC2 (racemic) [Example 179, (R) and (S)-4-{3-[(4-carbamimidoylphenylamino)-(8-ethyl-4H-benzo[1,3]dioxin-6-yl)methyl]-5-oxo-4,5-dihydro-[1,2,4]triazol-1-yl}thiazole-5-carboxylic acid]
10.6 nM | COc1ccc(C(Nc2ccc(C(=N)N)c(O)c2)c2nn(-c3ccccc3C(=O)O)c(=O)[nH]2)cc1OC (racemic) [Example 183, 2-{3-[(R) and (S)-(4-carbamimidoyl-3-hydroxyphenylamino)-(3,4-dimethoxyphenyl)methyl]-5-oxo-4,5-dihydro-[1,2,4]triazol-1-yl}benzoic acid]
6.7 nM | COc1cc(F)c(C(Nc2ccc(C(=N)N)cc2)c2nn(-c3ncccc3F)c(=O)[nH]2)cc1OC (racemic) [Example 184, (R) and (S)-4-({(2-fluoro-4,5-dimethoxyphenyl)-[1-(3-fluoropyridin-2-yl)-5-oxo-4,5-dihydro-1H-[1,2,4]triazol-3-yl]methyl}amino)benzamidine acetate]
4.6 nM | COc1cc(C(Nc2ccc(C(=N)N)cc2)c2nn(-c3ncccc3N)c(=O)[nH]2)cnc1OC (racemic) [Example 186, 4-{[(R) and (S)-[1-(3-Aminopyridin-2-yl)-5-oxo-4,5-dihydro-1H-[1,2,4]triazol-3-yl]-(5,6-dimethoxypyridin-3-yl)methyl]amino}benzamidine acetate]
7.9 nM | COc1cc(C(Nc2ccc(C(=N)N)cc2)c2nn(-c3ncsc3C(=O)O)c(=O)[nH]2)c(F)c2c1OCCC2 (racemic) [Example 190, 4-{3-[(R) and (S)-(4-Carbamimidoylphenylamino)-(5-fluoro-8-methoxychroman-6-yl)methyl]-5-oxo-4,5-dihydro-[1,2,4]triazol-1-yl}thiazole-5-carboxylic acid]
15.7 nM | COc1ccc(C(Nc2ccc(C(=N)N)cc2)c2nn(-c3ncsc3C(=O)O)c(=O)[nH]2)cc1OC (racemic) [Example 193, (R) and (S)-4-{3-[(4-Carbamimidoylphenylamino)-(3,4-dimethoxyphenyl)methyl]-5-oxo-4,5-dihydro-[1,2,4]triazol-1-yl}-thiazole-5-carboxylic acid]
74.5 nM | COc1cc(F)c(C(Nc2ccc(C(=N)N)cc2)c2nn(-c3[nH]ncc3C(=O)O)c(=O)[nH]2)cc1OC (racemic) [Example 194, (R) and (S)-5-{3-[(4-Carbamimidoylphenylamino)-(2-fluoro-4,5-dimethoxyphenyl)methyl]-5-oxo-4,5-dihydro-[1,2,4]triazol-1-yl}-1H-pyrazole-4-carboxylic acid acetate]
6.2 nM | COCCOc1ccc(C(Nc2ccc(C(=N)N)cc2)c2nn(-c3ccsc3C(=O)O)c(=O)[nH]2)cc1OC (racemic) [Example 195, 3-(3-{(R) and (S)-(4-Carbamimidoylphenylamino)-[3-methoxy-4-(2-methoxyethoxy)phenyl]methyl}-5-oxo-4,5-dihydro-[1,2,4]triazol-1-yl)thiophene-2-carboxylic acid]
24.1 nM | COc1cc(OCCO)c(F)c(C(Nc2ccc(C(=N)N)cc2)c2nn(-c3ncc[nH]c3=O)c(=O)[nH]2)c1 (racemic) [Example 199, (R) and (S)-4-({[2-Fluoro-3-(2-hydroxyethoxy)-5-methoxyphenyl]-[5-oxo-1-(3-oxo-3,4-dihydropyrazin-2-yl)-4,5-dihydro-1H-[1,2,4]triazol-3-yl]methyl}amino)benzamidine acetate]
